These results are taken from publication PMC9529094, “Identification of natural cytochalasins as leads for neglected tropical diseases drug discovery” (PLoS ONE, 2022).

For orientation: CC50 means the concentration at which the toxic effect on the cells reaches its halfway point. As usually defined, the IC50 is the concentration needed to halve the response being measured.

Data set [1] can be described thus: in vitro. To be noted: human, 72 h, MTS. The data set is classed as cell-based. As for the experimental part:
(§1) THP-1 (human monocyte cell line) cells were cultivated in RPMI medium supplemented with 10% foetal calf serum (FCS) (Cultilab, Campinas, SP, BR) and 1% penicillin and streptomycin (pen/strep—Sigma-Aldrich) at 37°C under 5% CO2, and HFF-1 (human fibroblast) and HepG2 (hepatocytes) cells were cultivated in DMEM without phenol red (Cultilab) supplemented with 10% FBS (Sigma-Aldrich) and 1% pen/strep at 37°C under 5% CO2.
The cytotoxicity of the compounds against HFF-1 fibroblasts and HepG2 hepatocytes was evaluated using the MTS tetrazolium assay (Promega, Madison, WI, USA). HFF-1 fibroblasts were seeded at 4x10^3/well in 96-well culture plates in DMEM without phenol red and incubated overnight (37°C, 5% CO2). HepG2 hepatocytes were seeded at 7x10^3/well in 96-well culture plates in DMEM (Cultilab) with supplements (10% FCS, 1% pen/strep) and incubated overnight (37°C, 5% CO2). The compounds were added in 2-fold serial dilutions at the same concentrations described before, and the plates were incubated as described before. Each compound concentration was evaluated in duplicate. All the plates included doxorubicin (DOX) (Sigma-Aldrich) as a positive control (10–0.01 μM) and untreated wells as a negative control (100% growth). After 72 h, 15 μL of MTS (Promega) was added, and the plates were incubated for 4 h. The absorbance was measured at 490 nm in an automated SpectraMax 384 microplate reader (Sunnyvale, CA, USA), and the data were analysed using GraphPad Prism version 8.0 for CC50 value calculation. The percentage of nonviable cells was determined and compared to the negative control wells (100% growth).

The test system of data set [2] is intracellular T. cruzi Tulahuen LacZ amastigotes. Briefly: microbe, parasite or virus in culture. It counts as cell-based, Trypanosoma cruzi. As for the experimental part:
(§2) The epimastigote forms of the T. cruzi Tulahuen strain, which expresses the E. coli β-galactosidase gene lacZ [11], were grown in liver infusion tryptone (LIT) supplemented with 10% FCS (Cultilab) and 1% pen/strep (Sigma–Aldrich) at 28°C. Metacyclogenesis from epimastigotes to trypomastigotes was induced by the incubation of the epimastigotes in Grace’s insect medium (Sigma-Aldrich, 28°C) every 5 days. After 5 days, the trypomastigote forms were used to infect the HFF-1 cells. The promastigote forms of L. infantum were maintained in Schneider’s insect medium (Sigma-Aldrich) supplemented with 10% FCS (Cultilab) and 1% pen/strep (Sigma-Aldrich) at 28°C and subcultured every 6 or 7 days.
In vitro assays against T. cruzi were performed as described previously. HFF-1 human fibroblasts were seeded at 4x10^3/well in 96-well tissue culture plates in DMEM (Cultilab) without phenol red and then incubated overnight (37°C, 5% CO2). Next, trypomastigotes were added at 4x10^4/well, and the plates were incubated (37°C, 5% CO2). After 24 h, 2-fold serial dilutions of the test compounds were added at concentrations ranging from 64 to 0.12 μM, and the plates were then incubated (37°C, 5% CO2). Each compound concentration was evaluated in duplicate. All the plates included BZ (64–0.12 μM) (Sigma-Aldrich) as a positive control and untreated wells (100% growth) as a negative control. After 120 h, chlorophenol red β-D-galactopyranoside (CPRG, Sigma-Aldrich) was added to each well. The absorbance was measured at 570 nm in an automated SpectraMax 384 microplate reader (Sunnyvale, CA, USA), and the data were analysed using GraphPad Prism version 8.0 (San Diego, CA, USA) for IC50 value calculation.
(§3) The analyses were performed using GraphPad Prism version 8.0 (GraphPad Software, San Diego, CA, USA). Both the IC50 and CC50 values were calculated by adjusting the sigmoid dose-response curves, and the selectivity index (SI) values were determined by CC50/IC50 [16]. Statistical analyses were performed using one-way ANOVA followed by Dunnett’s multiple comparison test.

The nature of data set [3]: in vitro. The data set is classed as cell-based. To be noted: human; 72 h, resazurin; read-out: THP-1 CC50 (μM ± SD). As for the experimental part:
as §1
THP-1 cells were seeded at 2x10^4/well in 96-well culture plates in RPMI 1640 supplemented (10% FCS, 1% pen/strep) and incubated overnight (37°C, 5% CO2). The compounds were added in 2-fold serial dilutions (64–0.12 μM), and the plates were incubated as described before. Each compound concentration was evaluated in duplicate. All the plates included DOX (Sigma-Aldrich) as a positive control (10–0.01 μM) and untreated wells as a negative control (100% growth). After 72 h, 20 μL of resazurin (Sigma-Aldrich) was added, and the plates were incubated for 4 h. The absorbance was measured at 536 and 588 nm in an automated microplate reader SpectraMax Gemini, and the data were analysed using GraphPad Prism version 8.0 for CC50 value calculation. The percentage of nonviable cells was determined and compared to the negative control wells (100% growth).

Data set [4] relates to intracellular L. infantum amastigotes. Briefly: microbe, parasite or virus in culture. The data set is classed as cell-based, Leishmania infantum. As for the experimental part: as §2
In the intracellular amastigote assay, THP-1 cells were seeded at 2x10^4/well (RPMI-1640, 100 μL) with phorbol 12-myristate 13-acetate (PMA) at 20 ng/mL for differentiation into macrophages. After incubation for 72 h (5% CO2, 37°C), the medium was aspirated, and late-stage L. infantum promastigotes were added (2x10^5/well, 100 μL). Following 24 h of incubation, the medium was aspirated to clear extracellular parasites, and the compounds were added in serial dilutions (2-fold) to final concentrations of 64–0.12 μM. The plates included negative controls (100% growth) and MIL (64–0.12 μM) as a positive control. After 120 h of incubation, the medium was removed, and the cells were fixed in methanol and stained with Giemsa. The average number of intracellular amastigotes per THP-1-cell was determined using an inverted microscope and a cell counter. Growth inhibition is expressed as a percentage of the average number of amastigotes per macrophage in the negative control wells. The IC50 values were obtained using GraphPad Prism version 8.0.
as §3

Where two headings read alike, the source gives them in different places. A value given as a limit tells only on which side of the number the result lay.

In the case of `O=C(Cn1ccnc1[N+](=O)[O-])NCc1ccccc1` [BZ, benznidazole, reference compound], the CC50 in “in vitro [1]” (read-out: HFF-1 CC50 (μM ± SD)) was above 64 µM. Moreover, the IC50 in data set [2] (Trypanosoma cruzi, intracellular amastigotes, Tulahuen LacZ, HFF-1 host cells, 120 h, read-out: T. cruzi IC50 (μM ± SD)) turned out to be 5.2 ± 1.87 µM. Further, in data set [2] (selectivity index), the “SI^1 (CC50 HFF-1/IC50 T. cruzi)” value is given as above 12.3.

As to `COc1cccc2c1C(=O)c1c(O)c3c(c(O)c1C2=O)C[C@@](O)(C(=O)CO)C[C@@H]3O[C@H]1C[C@H](N)[C@H](O)[C@H](C)O1` [DOX, doxorubicin, reference compound], the values for the CC50 in the data set “in vitro [1]” (read-out: HFF-1 CC50 (μM ± SD)), in “in vitro [1]” (read-out: HepG2 CC50 (μM ± SD)) and in “in vitro [3]” were 0.69 ± 0.08 µM, 0.24 ± 0.06 µM and 0.97 ± 0.31 µM, respectively.

Consider `CCCCCCCCCCCCCCCCOP(=O)([O-])OCC[N+](C)(C)C` [MIL, miltefosine, reference compound], for which, in “in vitro [3]”, the CC50 was determined as 58.5 ± 5.37 µM. Also, the IC50 in data set [4] (Leishmania infantum, THP-1, 120 h, intracellular amastigotes in THP-1 macrophages, 120 h, read-out: L. infantum IC50 (μM ± SD)) was 1.1 ± 0.16 µM. For the same compound, in data set [4] (selectivity index), the “SI^2 (CC50 THP-1/IC50 L. infantum)” value amounted to 53.14.
